Results on 18 molecules are retold here after BindingDB's records for doi:10.7270/Q2Q52N1X (Vanderbilt Screening Center for GPCRs, Ion Channels and …, 2009).

The test deals with T1, Solute carrier family 12 member 5 (Homo sapiens, UniProt Q9H2X9).
T1 sequence (Q9H2X9 whole entry): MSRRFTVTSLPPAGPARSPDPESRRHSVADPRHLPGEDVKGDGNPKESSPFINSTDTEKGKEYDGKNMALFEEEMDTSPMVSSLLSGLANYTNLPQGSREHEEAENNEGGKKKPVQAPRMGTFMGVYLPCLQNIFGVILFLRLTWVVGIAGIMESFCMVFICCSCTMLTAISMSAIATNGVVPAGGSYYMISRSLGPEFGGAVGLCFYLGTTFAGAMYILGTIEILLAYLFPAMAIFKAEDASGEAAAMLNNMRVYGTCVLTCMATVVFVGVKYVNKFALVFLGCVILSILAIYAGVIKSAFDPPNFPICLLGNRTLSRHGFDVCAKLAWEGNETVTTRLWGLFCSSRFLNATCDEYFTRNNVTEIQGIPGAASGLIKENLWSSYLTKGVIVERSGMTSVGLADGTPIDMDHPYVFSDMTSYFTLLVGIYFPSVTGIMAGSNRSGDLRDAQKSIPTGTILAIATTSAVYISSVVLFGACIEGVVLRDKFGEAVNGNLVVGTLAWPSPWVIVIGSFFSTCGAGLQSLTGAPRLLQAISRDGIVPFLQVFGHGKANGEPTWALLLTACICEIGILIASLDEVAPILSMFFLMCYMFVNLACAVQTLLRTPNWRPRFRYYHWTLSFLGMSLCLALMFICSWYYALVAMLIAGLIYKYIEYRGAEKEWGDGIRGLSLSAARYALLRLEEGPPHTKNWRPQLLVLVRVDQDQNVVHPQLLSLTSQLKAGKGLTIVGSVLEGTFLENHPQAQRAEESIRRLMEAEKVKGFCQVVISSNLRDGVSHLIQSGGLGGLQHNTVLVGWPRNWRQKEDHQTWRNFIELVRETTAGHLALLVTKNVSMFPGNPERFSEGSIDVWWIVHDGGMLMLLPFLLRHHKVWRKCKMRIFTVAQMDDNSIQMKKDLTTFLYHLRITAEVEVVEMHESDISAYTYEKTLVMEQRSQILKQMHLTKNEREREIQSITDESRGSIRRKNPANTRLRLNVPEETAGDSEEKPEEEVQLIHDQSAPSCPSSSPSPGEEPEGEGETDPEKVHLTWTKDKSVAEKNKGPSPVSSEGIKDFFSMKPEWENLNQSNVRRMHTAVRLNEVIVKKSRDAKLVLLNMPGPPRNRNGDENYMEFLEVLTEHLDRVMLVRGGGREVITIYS
Description: KCC2 modulator potency by thallium flux, dose response, cell-based, HEK293 KCC2, FluoZin-2 fluorescence (AID 1736).

Where [1] appears, read: inactive by the depositor's call.

As to `COc1ccc(/C=C2\CCc3ccccc3C2=O)cc1CN1CCOCC1` [(2E)-2-[4-methoxy-3-(morpholinomethyl)benzylidene]tetralin-1-one], the EC50 – broadly, the concentration giving half of the maximal effect – under setting [1] was 219 µM.
For the molecule `COC(=O)[C@@H](NC(=O)O[C@@H]1C(=O)c2ccc(OC)cc2O[C@H]1c1cccc(C(F)(F)F)c1)C(C)C` [(2S)-2-[[(2S,3S)-4-keto-7-methoxy-2-[3-(trifluoromethyl)phenyl]chroman-3-yl]oxycarbonylamino]-3-methyl-butyric acid methyl ester], a half-maximal effect (EC50) was put at 4.12 µM.
Under setting [1], `CN1C(=CC(=O)C2CCC2)Sc2ccccc21` [(2Z)-1-cyclobutyl-2-(3-methyl-1,3-benzothiazol-2-ylidene)ethanone] returned a concentration giving a half-maximal response (EC50) of 170 µM.
For `N#CC(C(=O)c1cccc(F)c1)c1nc2ccccc2s1` (stereo not drawn) [(2Z)-2-(3H-1,3-benzothiazol-2-ylidene)-3-(3-fluorophenyl)-3-keto-propionitrile], a half-maximal effect (EC50) was put at 9.66 µM.
As for `N#CC(C(=O)COc1ccccc1)c1nc2ccccc2s1` (stereo not drawn) [(2Z)-2-(3H-1,3-benzothiazol-2-ylidene)-3-keto-4-phenoxy-butyronitrile], a half-maximal effect (EC50) was put at 6.56 µM.
Molecule `COc1ccc(C(=O)N2CCCC(c3ccccc3)C2)cc1` (stereo not drawn) [(4-methoxyphenyl)-(3-phenyl-1-piperidinyl)methanone] had an EC50 of 110 µM.
`O=C(c1ccc(-c2ccccc2)cc1)C1CCCN(Cc2ccncc2)C1` (stereo not drawn) [(4-phenylphenyl)-[1-(4-pyridylmethyl)-3-piperidyl]methanone] returned an EC50 of 7.52 µM.
For the molecule `c1ccc(-c2csc(N=NCc3cccnc3)n2)cc1` [(4-phenylthiazol-2-yl)-(3-pyridylmethyleneamino)amine], the EC50 was determined as 35.8 µM.
As to `CCOc1[nH]n(-c2ccccc2)c(=O)c1C=Nc1ccc(F)cc1F` [(4E)-4-[[[2,4-bis(fluoranyl)phenyl]amino]methylidene]-5-ethoxy-2-phenyl-pyrazol-3-one], the EC50 came to 0.0323 µM.
In turn, `CCOC(=O)c1c(C)[nH]c(N=Nc2ccccc2)c1C` [(5Z)-2,4-dimethyl-5-(phenylhydrazinylidene)-3-pyrrolecarboxylic acid ethyl ester] showed an EC50 of 6.54 µM.
Still for that read-out and setting: with `CN1C(=O)/C(=C/c2ccccc2OCc2ccccc2)NC1=S` [(5Z)-3-methyl-5-[(2-phenylmethoxyphenyl)methylidene]-2-sulfanylidene-4-imidazolidinone] the figure was 7.64 µM; with `Oc1ccccc1CN=Nc1nc2ccccc2o1` [(6E)-6-[(1,3-benzoxazol-2-ylhydrazo)methylidene]-1-cyclohexa-2,4-dienone], 3040 µM; with `CCCCCN1C/C=C\C(c2ccc(OC)cc2)N(Cc2ccc(F)cc2)C(=O)C1` (stereo not drawn) [(6Z)-1-amyl-4-(4-fluorobenzyl)-5-(4-methoxyphenyl)-5,8-dihydro-2H-1,4-diazocin-3-one], 7.86 µM.
Take `O=C(/C=C/c1ccco1)N1CCC(Cc2ccccc2)CC1` [(E)-1-(4-benzylpiperidin-1-yl)-3-(furan-2-yl)prop-2-en-1-one]: the EC50 amounted to 2.93 µM.
On to `CC(C)CCNC(=O)COC(=O)/C=C/c1ccc2ccccc2n1` [(E)-3-(2-quinolinyl)-2-propenoic acid [2-(3-methylbutylamino)-2-oxoethyl] ester], for which the midpoint of the response, the EC50, lay at 2.75 µM.
Still for that read-out and setting: the result for `COc1ccc(-c2nnc(S/C(=C/c3ccc(Cl)cc3)C(=O)O)o2)cc1` [(E)-3-(4-chlorophenyl)-2-[[5-(4-methoxyphenyl)-1,3,4-oxadiazol-2-yl]sulfanyl]prop-2-enoic acid] reads 0.489 µM.
On the same count and under the same terms, the result for `O=C(O)/C=C/c1cn(Cc2ccccc2Cl)nc1-c1ccccc1` [(E)-3-[1-(2-chlorobenzyl)-3-phenyl-pyrazol-4-yl]acrylic acid] reads 2.04 µM; that for `O=C(O)CC/C(=C\c1ccc(N2CCCC2)c([N+](=O)[O-])c1)c1nc2ccccc2s1` [(E)-4-(1,3-benzothiazol-2-yl)-5-(3-nitro-4-pyrrolidin-1-yl-phenyl)pent-4-enoic acid], 29.4 µM.
